Experimental data taken from ChEMBL document CHEMBL4609992, “Discovery of novel small molecule induced selective degradation of the bromodomain and extra-terminal (BET) bromodomain protein BRD4 and BRD2 with cellular potencies” (Bioorg Med Chem, 2020).
pIC50: −log10 of the molar value. Calls of active or inactive are those of the source. No cut-off for these calls is given here.

Legend:
MV4-11 [1] = assay: Antiproliferative activity against human MV4-11 cells assessed as reduction in cell viability measured after 48 hrs by CellTiter-Glo assay; assay type: functional, cell-based; conditions: MV4-11, 48 h
HL-60(TB) = assay: Growth inhibition of human HL-60(TB) cells assessed as cell growth inhibition incubated for 48 hrs by sulforhodamine B assay; assay type: functional; conditions: HL-60, 48 h
K562 = assay: Growth inhibition of human K562 cells assessed as cell growth inhibition incubated for 48 hrs by sulforhodamine B assay; assay type: functional; conditions: K562, 48 h
MOLT-4 = assay: Growth inhibition of human MOLT4 cells assessed as cell growth inhibition incubated for 48 hrs by sulforhodamine B assay; assay type: functional; conditions: MOLT-4, 48 h
RPMI-8226 = assay: Growth inhibition of human RPMI8226 cells assessed as cell growth inhibition incubated for 48 hrs by sulforhodamine B assay; assay type: functional; conditions: RPMI-8226, 48 h
A549 = assay: Growth inhibition of human A549/ATCC cells assessed as cell growth inhibition incubated for 48 hrs by sulforhodamine B assay; assay type: functional; conditions: A549, 48 h
EKVX = assay: Growth inhibition of human EKVX cells assessed as cell growth inhibition incubated for 48 hrs by sulforhodamine B assay; assay type: functional
HOP-62 = assay: Growth inhibition of human HOP62 cells assessed as cell growth inhibition incubated for 48 hrs by sulforhodamine B assay; assay type: functional; conditions: HOP-62, 48 h
HOP-92 = assay: Growth inhibition of human HOP92 cells assessed as cell growth inhibition incubated for 48 hrs by sulforhodamine B assay; assay type: functional; conditions: HOP-92, 48 h
NCI-H226 = assay: Growth inhibition of human NCI-H226 cells assessed as cell growth inhibition incubated for 48 hrs by sulforhodamine B assay; assay type: functional; conditions: NCI-H226, 48 h
NCI-H23 = assay: Growth inhibition of human NCI-H23 cells assessed as cell growth inhibition incubated for 48 hrs by sulforhodamine B assay; assay type: functional; conditions: NCI-H23, 48 h
NCI-H322M = assay: Growth inhibition of human NCI-H322M cells assessed as cell growth inhibition incubated for 48 hrs by sulforhodamine B assay; assay type: functional
NCI-H522 = assay: Growth inhibition of human NCI-H522 cells assessed as cell growth inhibition incubated for 48 hrs by sulforhodamine B assay; assay type: functional; conditions: NCI-H522, 48 h
COLO 205 [2] = assay: Growth inhibition of human COLO205 cells assessed as cell growth inhibition incubated for 48 hrs by sulforhodamine B assay; assay type: functional; conditions: COLO 205, 48 h
HT-29 = assay: Growth inhibition of human HT-29 cells assessed as cell growth inhibition incubated for 48 hrs by sulforhodamine B assay; assay type: functional; conditions: HT-29, 48 h
SF-268 = assay: Growth inhibition of human SF268 cells assessed as cell growth inhibition incubated for 48 hrs by sulforhodamine B assay; assay type: functional; conditions: SF-268, 48 h
SF-295 = assay: Growth inhibition of human SF295 cells assessed as cell growth inhibition incubated for 48 hrs by sulforhodamine B assay; assay type: functional; conditions: SF-295, 48 h
M14 = assay: Growth inhibition of human M14 cells assessed as cell growth inhibition incubated for 48 hrs by sulforhodamine B assay; assay type: functional; conditions: M14, 48 h
SK-MEL-2 = assay: Growth inhibition of human SK-MEL-2 cells assessed as cell growth inhibition incubated for 48 hrs by sulforhodamine B assay; assay type: functional; conditions: SK-MEL-2, 48 h
IGROV-1 = assay: Growth inhibition of human IGROV1 cells assessed as cell growth inhibition incubated for 48 hrs by sulforhodamine B assay; assay type: functional; conditions: IGROV-1, 48 h
OVCAR-3 = assay: Growth inhibition of human OVCAR3 cells assessed as cell growth inhibition incubated for 48 hrs by sulforhodamine B assay; assay type: functional; conditions: OVCAR-3, 48 h
SK-OV-3 = assay: Growth inhibition of human SKOV3 cells assessed as cell growth inhibition incubated for 48 hrs by sulforhodamine B assay; assay type: functional; conditions: SK-OV-3, 48 h
786-0 = assay: Growth inhibition of human 786-0 cells assessed as cell growth inhibition incubated for 48 hrs by sulforhodamine B assay; assay type: functional; conditions: 786-0, 48 h
MDA-MB-231 = assay: Growth inhibition of human MDA-MB-231 cells assessed as cell growth inhibition incubated for 48 hrs by sulforhodamine B assay; assay type: functional; conditions: MDA-MB-231, 48 h
BT-549 = assay: Growth inhibition of human BT549 cells assessed as cell growth inhibition incubated for 48 hrs by sulforhodamine B assay; assay type: functional; conditions: BT-549, 48 h
MV4-11 [3] = assay: Antiproliferative activity against human MV4-11 cells assessed as reduction in cell viability; assay type: functional, cell-based
A-375 = assay: Antiproliferative activity against human A375 cells assessed as reduction in cell viability; assay type: functional, cell-based
CWR22R = assay: Antiproliferative activity against human 22Rv1 cells assessed as reduction in cell viability; assay type: functional, cell-based
LNCaP-Clone-FGC = assay: Antiproliferative activity against human LNCaP-FGC cells assessed as reduction in cell viability; assay type: functional, cell-based
PC-3 = assay: Antiproliferative activity against human PC3 cells assessed as reduction in cell viability; assay type: functional, cell-based
VCaP = assay: Antiproliferative activity against human VCaP cells assessed as reduction in cell viability; assay type: functional, cell-based
COLO 205 [4] = assay: Antiproliferative activity against human COLO205 cells assessed as reduction in cell viability; assay type: functional, cell-based
DU-145 = assay: Antiproliferative activity against human DU145 cells assessed as reduction in cell viability; assay type: functional, cell-based
TT = assay: Antiproliferative activity against human TT cells assessed as reduction in cell viability; assay type: functional, cell-based
HCC827 = assay: Antiproliferative activity against human HCC827 cells assessed as reduction in cell viability; assay type: functional, cell-based
NCI-H1650 = assay: Antiproliferative activity against human NCI-H1650 cells assessed as reduction in cell viability; assay type: functional, cell-based
MV4-11 [5] = assay: Induction of apoptosis in human MV4-11 cells at < 30 nM measured after 48 hrs by Annexin V-FITC/propidium iodide staining based FACScan flow cytometry relative to control; assay type: functional
[6] = molecular target: T1, Protein cereblon/Bromodomain-containing protein 4/Cullin-4A (Homo sapiens) (UniProt O60885+Q96SW2+Q13619); assay: Protac activity at cereblon/cullin4A/BRD4 in human MV4-11 cells assessed as induction of BRD4 degradation at 10 nM measured after 18 hrs by Western blot analysis; assay type: cell-based
[7] = molecular target: T1, Protein cereblon/Bromodomain-containing protein 4/Cullin-4A (Homo sapiens); assay: Protac activity at cereblon/cullin4A/BRD4 in human MV4-11 cells assessed as induction of BRD4 degradation at 1 to 500 nM measured after 18 hrs by Western blot analysis; assay type: cell-based
[8] = molecular target: Protein cereblon/Bromodomain-containing protein 2/Cullin-4A (Homo sapiens) (UniProt P25440+Q96SW2+Q13619); assay: Protac activity at cereblon/cullin4A/BRD2 in human MV4-11 cells assessed as induction of BRD2 degradation at 50 nM measured after 18 hrs by Western blot analysis; assay type: cell-based
Chain of Protein cereblon/Bromodomain-containing protein 2/Cullin-4A (Homo sapiens) (P25440 whole entry, looked up): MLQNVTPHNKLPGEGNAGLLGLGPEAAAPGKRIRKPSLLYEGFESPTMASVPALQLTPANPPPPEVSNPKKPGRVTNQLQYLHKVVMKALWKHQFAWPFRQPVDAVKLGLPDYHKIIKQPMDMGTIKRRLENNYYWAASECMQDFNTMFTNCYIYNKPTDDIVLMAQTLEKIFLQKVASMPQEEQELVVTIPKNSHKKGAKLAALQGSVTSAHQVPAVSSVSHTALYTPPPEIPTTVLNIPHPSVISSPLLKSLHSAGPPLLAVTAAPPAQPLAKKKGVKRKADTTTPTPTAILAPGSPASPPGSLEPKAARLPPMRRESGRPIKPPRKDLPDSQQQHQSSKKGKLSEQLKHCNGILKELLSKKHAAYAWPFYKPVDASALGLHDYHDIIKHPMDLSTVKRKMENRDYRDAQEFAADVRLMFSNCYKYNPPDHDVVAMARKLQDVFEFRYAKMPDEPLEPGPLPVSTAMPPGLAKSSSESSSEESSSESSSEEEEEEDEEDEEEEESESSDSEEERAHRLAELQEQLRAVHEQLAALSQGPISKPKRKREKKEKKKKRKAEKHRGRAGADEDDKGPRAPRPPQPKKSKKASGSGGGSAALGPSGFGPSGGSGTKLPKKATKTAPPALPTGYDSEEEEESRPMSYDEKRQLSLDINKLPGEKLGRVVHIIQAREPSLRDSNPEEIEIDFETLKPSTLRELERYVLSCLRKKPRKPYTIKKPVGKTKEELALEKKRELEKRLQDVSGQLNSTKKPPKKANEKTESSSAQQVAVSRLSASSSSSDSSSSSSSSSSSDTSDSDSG
Chain of Protein cereblon/Bromodomain-containing protein 2/Cullin-4A (Homo sapiens) (Q13619 whole entry, looked up): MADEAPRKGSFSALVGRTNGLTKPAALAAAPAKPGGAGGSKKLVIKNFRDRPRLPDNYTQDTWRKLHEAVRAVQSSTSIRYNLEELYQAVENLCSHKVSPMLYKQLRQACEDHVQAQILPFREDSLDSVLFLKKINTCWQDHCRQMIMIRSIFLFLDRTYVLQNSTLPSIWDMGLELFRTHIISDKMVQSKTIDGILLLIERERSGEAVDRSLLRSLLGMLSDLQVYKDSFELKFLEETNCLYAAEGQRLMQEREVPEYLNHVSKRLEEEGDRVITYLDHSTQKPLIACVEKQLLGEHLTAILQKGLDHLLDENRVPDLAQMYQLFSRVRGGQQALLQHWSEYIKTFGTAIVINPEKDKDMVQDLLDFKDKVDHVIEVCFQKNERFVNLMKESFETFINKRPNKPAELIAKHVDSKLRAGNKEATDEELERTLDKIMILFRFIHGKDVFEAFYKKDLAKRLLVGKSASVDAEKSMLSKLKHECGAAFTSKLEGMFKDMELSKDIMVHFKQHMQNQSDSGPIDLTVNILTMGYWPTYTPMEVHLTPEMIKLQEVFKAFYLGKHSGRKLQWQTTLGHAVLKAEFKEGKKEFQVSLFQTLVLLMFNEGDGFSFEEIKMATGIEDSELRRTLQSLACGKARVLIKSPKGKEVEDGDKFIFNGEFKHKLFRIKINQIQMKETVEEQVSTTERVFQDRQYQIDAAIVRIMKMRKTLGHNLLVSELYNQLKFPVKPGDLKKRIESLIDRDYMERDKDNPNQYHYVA
Chain of Protein cereblon/Bromodomain-containing protein 2/Cullin-4A (Homo sapiens) (Q96SW2 whole entry, looked up): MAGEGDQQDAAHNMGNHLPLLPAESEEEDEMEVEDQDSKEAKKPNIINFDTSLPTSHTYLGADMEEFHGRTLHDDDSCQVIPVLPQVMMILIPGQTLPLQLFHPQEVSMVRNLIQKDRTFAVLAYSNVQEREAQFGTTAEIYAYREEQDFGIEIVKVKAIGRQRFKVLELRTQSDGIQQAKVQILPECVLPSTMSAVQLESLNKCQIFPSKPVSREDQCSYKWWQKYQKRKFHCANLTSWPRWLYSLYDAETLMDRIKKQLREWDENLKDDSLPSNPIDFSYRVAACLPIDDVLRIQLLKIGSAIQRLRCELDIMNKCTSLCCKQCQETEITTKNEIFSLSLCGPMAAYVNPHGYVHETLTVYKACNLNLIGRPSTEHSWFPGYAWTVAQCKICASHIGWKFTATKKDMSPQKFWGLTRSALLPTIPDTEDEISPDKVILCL

[9] = molecular target: Protein cereblon/Bromodomain-containing protein 3/Cullin-4A (Homo sapiens, UniProt Q15059+Q96SW2+Q13619); assay: Protac activity at cereblon/cullin4A/BRD3 in human MV4-11 cells assessed as induction of BRD3 degradation at 50 nM measured after 18 hrs by Western blot analysis; assay type: cell-based; conditions: mv4-11, 18 h, 0.05 µM
Chain of Protein cereblon/Bromodomain-containing protein 3/Cullin-4A (Q15059 whole entry): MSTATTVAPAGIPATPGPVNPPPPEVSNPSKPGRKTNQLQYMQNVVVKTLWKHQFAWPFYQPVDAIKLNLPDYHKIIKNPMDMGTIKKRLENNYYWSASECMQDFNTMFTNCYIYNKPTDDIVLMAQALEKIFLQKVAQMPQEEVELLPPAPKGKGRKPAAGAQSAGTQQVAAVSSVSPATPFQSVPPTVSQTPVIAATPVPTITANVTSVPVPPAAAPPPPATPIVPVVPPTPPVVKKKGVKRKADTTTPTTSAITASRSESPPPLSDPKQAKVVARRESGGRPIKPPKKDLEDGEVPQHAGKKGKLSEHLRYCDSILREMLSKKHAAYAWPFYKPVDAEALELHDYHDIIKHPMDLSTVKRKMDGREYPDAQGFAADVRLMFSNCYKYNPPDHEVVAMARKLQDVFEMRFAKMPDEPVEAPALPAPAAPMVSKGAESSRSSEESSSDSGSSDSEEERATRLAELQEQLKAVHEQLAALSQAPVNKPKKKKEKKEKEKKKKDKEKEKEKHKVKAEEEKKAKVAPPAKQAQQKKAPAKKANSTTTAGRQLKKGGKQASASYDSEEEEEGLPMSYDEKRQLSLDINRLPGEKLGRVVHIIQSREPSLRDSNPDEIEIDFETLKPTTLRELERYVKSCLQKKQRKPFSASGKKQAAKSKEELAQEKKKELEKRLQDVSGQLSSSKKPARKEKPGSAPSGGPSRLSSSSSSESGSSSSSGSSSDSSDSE
Chain of Protein cereblon/Bromodomain-containing protein 3/Cullin-4A (Q96SW2 whole entry): as the sequence (Q96SW2 whole entry, looked up) above
Chain of Protein cereblon/Bromodomain-containing protein 3/Cullin-4A (Q13619 whole entry): as the sequence (Q13619 whole entry, looked up) above

COc1ccccc1S(=O)(=O)Nc1ccc2c3c(cc(CCC(=O)NCCCCNc4cccc5c4C(=O)N(C4CCC(=O)NC4=O)C5=O)cc13)C(=O)N2C (stereo unspecified)
pIC50 (MV4-11 [1]): 7.91 | GI50 (HL-60(TB)): 22 nM | GI50 (K562): 422 nM | GI50 (MOLT-4): 31 nM | GI50 (RPMI-8226): 683 nM | GI50 (A549): 5.26 µM | GI50 (EKVX): 7.48 µM | GI50 (HOP-62): 416 nM | GI50 (HOP-92): 26 nM | GI50 (NCI-H226): 456 nM | GI50 (NCI-H23): 37.5 µM | GI50 (NCI-H322M): 355 nM | GI50 (NCI-H522): 2740 nM | GI50 (COLO 205 [2]): 495 nM | GI50 (HT-29): 3.77 µM | GI50 (SF-268): 366 nM | GI50 (SF-295): 3.22 µM | GI50 (M14): 937 nM | GI50 (SK-MEL-2): 1120 nM | GI50 (IGROV-1): 145 nM | GI50 (OVCAR-3): 1830 nM | GI50 (SK-OV-3): 1630 nM | GI50 (786-0): 2110 nM | GI50 (MDA-MB-231): 32 nM | GI50 (BT-549): 78 nM | pIC50 (MV4-11 [3]): 8.01 | pIC50 (A-375): 5.61 | pIC50 (CWR22R): 7.09 | pIC50 (LNCaP-Clone-FGC): 6.04 | pIC50 (PC-3): 6.03 | pIC50 (VCaP): 6.60 | pIC50 (COLO 205 [4]): 6.81 | pIC50 (DU-145): 5.44 | pIC50 (TT): 7.43 | pIC50 (HCC827): 6.24 | pIC50 (NCI-H1650): 5.88 | Activity (MV4-11 [5]): 86.86% | Activity [6]: Active | Activity [7]: Active | Activity [8]: Active | Activity [9]: Not Active
